In the supplement of paper PMC12463676, “Small-molecule dissolution of stress granules by redox modulation benefits ALS models” (Nature Chemical Biology, 2025):

Experiments:
[1] = compound: NC(=O)CCCCC1CCSS1 [lipoamide]; assay: thermal stability z-score vs DMSO; higher = more thermally stabilized by treatment; details: HeLa, lipoamide concentration 100 µM
Procedure: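 Cellular thermal proteome profiling in HeLa cells. Cells were treated with 100 µM lipoamide for 1 h, with or without 1 mM arsenate for a further 1 h, then heated to ten temperatures (37-66.3 °C), and soluble protein was quantified by TMT mass spectrometry relative to 0.1% DMSO controls. The thermal stability score (sum of log2 fold changes minus the abundance score) was transformed to a z-score; mean of n = 3 experiments.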

[2] = compound: O=[As]([O-])(O)O.[K+] [potassium arsenate]; assay: as above; details: HeLa; arsenate concentration 1 mM
Procedure: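 Cellular thermal proteome profiling in HeLa cells treated with 1 mM arsenate for 1 h (DMSO pretreatment), heated to ten temperatures (37-66.3 °C). Soluble protein was quantified by TMT mass spectrometry relative to DMSO controls; the thermal stability score was transformed to a z-score; mean of n = 3 experiments.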

[3] = arsenate co-treatment: 1 mM arsenate 1 h
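Further: each temperature applied for 3 min, abundance score taken as mean log2 fold change at the two lowest temperatures, z-score obtained by mean subtraction and division by SD.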

Chain of UniProt Q9UQ90 (Q9UQ90 whole entry): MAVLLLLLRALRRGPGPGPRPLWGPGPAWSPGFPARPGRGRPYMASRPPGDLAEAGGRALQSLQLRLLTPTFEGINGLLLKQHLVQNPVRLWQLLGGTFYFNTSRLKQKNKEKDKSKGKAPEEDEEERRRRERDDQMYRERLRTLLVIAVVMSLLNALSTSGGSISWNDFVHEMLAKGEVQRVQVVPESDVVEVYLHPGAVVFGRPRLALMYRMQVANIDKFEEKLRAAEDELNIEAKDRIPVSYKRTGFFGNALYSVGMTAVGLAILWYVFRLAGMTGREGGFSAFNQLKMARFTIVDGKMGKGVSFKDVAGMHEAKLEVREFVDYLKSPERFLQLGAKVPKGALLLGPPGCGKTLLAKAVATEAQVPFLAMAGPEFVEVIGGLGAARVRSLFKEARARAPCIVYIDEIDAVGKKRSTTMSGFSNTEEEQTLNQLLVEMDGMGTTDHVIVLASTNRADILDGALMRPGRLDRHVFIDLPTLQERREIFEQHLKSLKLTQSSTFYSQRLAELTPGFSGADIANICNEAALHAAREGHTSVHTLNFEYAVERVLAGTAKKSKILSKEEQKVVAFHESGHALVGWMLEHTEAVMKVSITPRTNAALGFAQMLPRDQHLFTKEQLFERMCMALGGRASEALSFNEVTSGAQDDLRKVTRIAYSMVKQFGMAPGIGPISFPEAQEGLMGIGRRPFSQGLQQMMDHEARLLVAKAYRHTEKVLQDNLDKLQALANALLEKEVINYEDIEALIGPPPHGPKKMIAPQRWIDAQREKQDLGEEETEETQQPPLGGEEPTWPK
Chain of UniProt P53814 (P53814 whole entry): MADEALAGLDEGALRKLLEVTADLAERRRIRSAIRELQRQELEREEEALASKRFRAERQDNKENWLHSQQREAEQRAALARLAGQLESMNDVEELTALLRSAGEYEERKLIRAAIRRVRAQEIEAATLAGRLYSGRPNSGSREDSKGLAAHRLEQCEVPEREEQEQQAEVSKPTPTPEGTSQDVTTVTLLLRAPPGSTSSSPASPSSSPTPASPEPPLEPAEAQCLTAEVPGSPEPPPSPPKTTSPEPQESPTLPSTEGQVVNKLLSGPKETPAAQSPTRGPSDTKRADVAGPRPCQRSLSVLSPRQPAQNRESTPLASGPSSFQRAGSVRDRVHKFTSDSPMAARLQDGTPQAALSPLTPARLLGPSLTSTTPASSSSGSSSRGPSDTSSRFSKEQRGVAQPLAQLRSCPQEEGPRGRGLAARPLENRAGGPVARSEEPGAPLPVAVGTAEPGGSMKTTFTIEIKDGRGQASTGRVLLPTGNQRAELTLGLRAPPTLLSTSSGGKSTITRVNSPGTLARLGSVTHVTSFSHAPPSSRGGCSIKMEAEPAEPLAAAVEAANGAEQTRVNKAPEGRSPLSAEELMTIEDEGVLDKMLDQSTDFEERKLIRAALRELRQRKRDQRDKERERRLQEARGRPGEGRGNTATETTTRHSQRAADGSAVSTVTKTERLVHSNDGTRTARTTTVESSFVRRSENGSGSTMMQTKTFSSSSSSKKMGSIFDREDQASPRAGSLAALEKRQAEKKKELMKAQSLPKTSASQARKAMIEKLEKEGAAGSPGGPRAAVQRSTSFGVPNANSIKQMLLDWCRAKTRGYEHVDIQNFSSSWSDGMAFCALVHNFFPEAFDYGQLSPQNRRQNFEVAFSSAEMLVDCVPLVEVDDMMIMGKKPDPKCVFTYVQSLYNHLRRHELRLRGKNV
Chain of UniProt Q9HCD5 (Q9HCD5 whole entry): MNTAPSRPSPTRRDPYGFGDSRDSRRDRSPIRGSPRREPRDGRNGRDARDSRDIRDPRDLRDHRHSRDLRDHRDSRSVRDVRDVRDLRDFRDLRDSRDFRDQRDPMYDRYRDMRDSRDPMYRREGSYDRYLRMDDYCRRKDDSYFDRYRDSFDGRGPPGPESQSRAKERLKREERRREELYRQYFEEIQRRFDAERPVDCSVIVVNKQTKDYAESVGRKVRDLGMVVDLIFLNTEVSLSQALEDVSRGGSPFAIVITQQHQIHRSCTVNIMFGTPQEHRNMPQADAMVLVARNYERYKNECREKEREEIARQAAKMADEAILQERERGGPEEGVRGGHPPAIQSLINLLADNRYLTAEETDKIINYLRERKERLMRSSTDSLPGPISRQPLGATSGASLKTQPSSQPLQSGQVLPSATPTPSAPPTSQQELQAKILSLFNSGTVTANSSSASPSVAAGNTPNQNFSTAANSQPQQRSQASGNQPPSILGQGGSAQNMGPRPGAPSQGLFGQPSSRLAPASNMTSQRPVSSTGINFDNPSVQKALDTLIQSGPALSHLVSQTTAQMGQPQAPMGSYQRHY
Chain of UniProt Q16254 (Q16254 whole entry): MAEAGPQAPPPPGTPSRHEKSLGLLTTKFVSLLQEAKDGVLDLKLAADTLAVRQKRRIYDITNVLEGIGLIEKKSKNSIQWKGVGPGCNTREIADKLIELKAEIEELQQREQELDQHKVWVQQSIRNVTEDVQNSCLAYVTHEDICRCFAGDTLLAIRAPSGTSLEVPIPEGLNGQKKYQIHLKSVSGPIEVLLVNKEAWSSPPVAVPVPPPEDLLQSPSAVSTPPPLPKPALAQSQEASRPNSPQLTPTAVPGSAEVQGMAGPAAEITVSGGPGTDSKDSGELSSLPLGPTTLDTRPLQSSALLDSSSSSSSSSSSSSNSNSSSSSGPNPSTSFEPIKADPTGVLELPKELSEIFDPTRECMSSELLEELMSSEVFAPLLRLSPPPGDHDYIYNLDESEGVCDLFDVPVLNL
Chain of UniProt Q9H7E9 (Q9H7E9 whole entry): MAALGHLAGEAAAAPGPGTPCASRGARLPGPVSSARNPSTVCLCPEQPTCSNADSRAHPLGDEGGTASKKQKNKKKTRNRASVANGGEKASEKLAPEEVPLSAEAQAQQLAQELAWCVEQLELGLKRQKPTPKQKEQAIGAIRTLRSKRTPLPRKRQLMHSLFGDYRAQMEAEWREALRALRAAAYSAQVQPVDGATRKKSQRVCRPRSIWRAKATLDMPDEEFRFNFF
Chain of UniProt Q5VW38 (Q5VW38 whole entry): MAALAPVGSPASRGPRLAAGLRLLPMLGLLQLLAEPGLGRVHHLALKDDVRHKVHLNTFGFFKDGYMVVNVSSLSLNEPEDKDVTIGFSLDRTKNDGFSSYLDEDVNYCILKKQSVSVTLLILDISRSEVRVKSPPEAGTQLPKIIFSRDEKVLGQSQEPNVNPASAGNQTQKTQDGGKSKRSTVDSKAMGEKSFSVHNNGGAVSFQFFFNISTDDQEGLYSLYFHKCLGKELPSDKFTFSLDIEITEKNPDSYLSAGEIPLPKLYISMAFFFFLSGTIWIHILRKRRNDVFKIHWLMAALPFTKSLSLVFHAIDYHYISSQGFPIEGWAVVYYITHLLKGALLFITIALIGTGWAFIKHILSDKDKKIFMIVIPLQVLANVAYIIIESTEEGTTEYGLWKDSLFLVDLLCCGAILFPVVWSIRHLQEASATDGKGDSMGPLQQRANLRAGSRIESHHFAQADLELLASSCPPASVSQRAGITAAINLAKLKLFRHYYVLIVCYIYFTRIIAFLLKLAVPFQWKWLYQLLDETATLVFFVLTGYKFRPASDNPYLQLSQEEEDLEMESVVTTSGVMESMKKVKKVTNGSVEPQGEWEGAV
Chain of UniProt Q08623 (Q08623 whole entry): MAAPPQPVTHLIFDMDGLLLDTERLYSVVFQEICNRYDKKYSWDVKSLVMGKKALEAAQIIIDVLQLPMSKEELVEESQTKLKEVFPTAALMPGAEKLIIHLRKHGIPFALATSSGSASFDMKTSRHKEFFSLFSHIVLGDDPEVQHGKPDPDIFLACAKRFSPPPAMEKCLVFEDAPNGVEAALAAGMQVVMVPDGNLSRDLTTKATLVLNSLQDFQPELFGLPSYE
Chain of UniProt Q96ST3 (Q96ST3 whole entry): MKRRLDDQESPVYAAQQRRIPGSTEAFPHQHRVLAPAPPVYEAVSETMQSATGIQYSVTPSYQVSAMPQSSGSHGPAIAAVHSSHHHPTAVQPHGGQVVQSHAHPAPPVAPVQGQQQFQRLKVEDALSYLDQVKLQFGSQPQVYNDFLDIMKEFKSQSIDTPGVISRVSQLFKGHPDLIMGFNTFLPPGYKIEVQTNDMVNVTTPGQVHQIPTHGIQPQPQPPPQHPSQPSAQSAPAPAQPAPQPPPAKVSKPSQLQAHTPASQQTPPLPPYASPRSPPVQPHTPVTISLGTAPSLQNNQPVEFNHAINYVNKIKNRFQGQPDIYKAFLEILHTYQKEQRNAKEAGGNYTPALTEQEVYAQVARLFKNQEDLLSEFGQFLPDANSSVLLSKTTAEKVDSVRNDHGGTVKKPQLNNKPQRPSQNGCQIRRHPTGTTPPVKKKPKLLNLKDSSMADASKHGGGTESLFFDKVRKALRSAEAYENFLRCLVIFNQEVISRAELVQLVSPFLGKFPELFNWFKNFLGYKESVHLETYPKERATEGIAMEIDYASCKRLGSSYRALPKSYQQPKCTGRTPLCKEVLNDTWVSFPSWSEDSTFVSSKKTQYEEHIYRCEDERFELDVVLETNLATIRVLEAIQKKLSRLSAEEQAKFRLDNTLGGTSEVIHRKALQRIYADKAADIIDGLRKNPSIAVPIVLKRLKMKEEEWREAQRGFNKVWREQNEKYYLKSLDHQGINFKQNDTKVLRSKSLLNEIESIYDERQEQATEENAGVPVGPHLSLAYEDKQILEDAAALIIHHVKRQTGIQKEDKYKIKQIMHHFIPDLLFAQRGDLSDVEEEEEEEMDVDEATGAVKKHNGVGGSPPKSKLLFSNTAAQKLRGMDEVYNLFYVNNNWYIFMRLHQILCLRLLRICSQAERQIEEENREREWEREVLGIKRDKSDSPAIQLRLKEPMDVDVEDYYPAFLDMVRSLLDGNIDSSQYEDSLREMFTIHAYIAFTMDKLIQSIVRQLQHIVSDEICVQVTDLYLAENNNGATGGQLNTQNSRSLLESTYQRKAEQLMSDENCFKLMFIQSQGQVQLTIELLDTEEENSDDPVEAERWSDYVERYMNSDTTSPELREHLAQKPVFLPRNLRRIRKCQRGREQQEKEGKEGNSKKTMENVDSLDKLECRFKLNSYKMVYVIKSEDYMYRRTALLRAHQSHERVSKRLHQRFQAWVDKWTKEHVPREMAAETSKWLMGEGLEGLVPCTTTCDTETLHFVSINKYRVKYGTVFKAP

| Target | thermal stability z-score [1, 3] | thermal stability z-score ([1]; arsenate co-treatment: none) | thermal stability z-score [2] |
| --- | --- | --- | --- |
| ROR2 (UniProt Q01974) | 0.3 | 0.449 | -0.811 |
| UBR7 (UniProt Q8N806) | -0.392 | -0.575 | 0.457 |
| SERINC1 (UniProt Q9NRX5) | 0.282 | -0.488 | 0.329 |
| PPP1R2 (UniProt P41236) | 0.658 | 0.619 | 0.183 |
| POLD2 (UniProt P49005) | 0.196 | 0.117 | -0.0023 |
| USP1 (UniProt O94782) | -0.779 | -0.444 | -0.221 |
| PUDP (UniProt Q08623) | 0.292 | -0.0843 | -1.3 |
| IFT81 (UniProt Q8WYA0) | -0.223 | -0.039 | -0.072 |
| PREB (UniProt Q9HCU5) | -0.337 | -0.353 | -0.0461 |
| MRPS12 (UniProt O15235) | -0.367 | 0.0698 | 0.233 |
| ARFIP1 (UniProt P53367) | 0.444 | 0.144 | 0.0115 |
| EHBP1 (UniProt Q8NDI1) | 0.0509 | 0.183 | -0.166 |
| DAB2 (UniProt P98082) | 0.216 | 0.404 | 1.73 |
| TGFBRAP1 (UniProt Q8WUH2) | 0.0561 | -0.0483 | -0.0443 |
| IGF2R (UniProt P11717) | -1.48 | -0.964 | -0.374 |
| L2HGDH (UniProt Q9H9P8) | -0.736 | -0.362 | 0.523 |
| SIPA1L2 (UniProt Q9P2F8) | 0.197 | 0.0316 | -0.149 |
| MBP (UniProt P02686) | 1.96 | 0.197 | 0.222 |
| SPG7 (UniProt Q9UQ90) | -0.126 | -0.0687 | 0.156 |
| SART1 (UniProt O43290) | 0.898 | 0.374 | -2.05 |
| UTP4 (UniProt Q969X6) | 0.167 | 0.0645 | 0.0306 |
| DYNLL1 (UniProt P63167) | -0.627 | -0.0429 | 0.163 |
| SPRYD7 (UniProt Q5W111) | 0.397 | 0.0188 | -0.339 |
| TMA7 (UniProt Q9Y2S6) | 0.356 | 0.314 | 0.111 |

| Target | thermal stability z-score [1, 3] | thermal stability z-score ([1]; arsenate co-treatment: none) | thermal stability z-score [2] |
| --- | --- | --- | --- |
| SDHB (UniProt P21912) | -0.24 | -0.16 | -0.681 |
| ATP6V1B2 (UniProt P21281) | -0.0948 | -0.684 | -0.745 |
| NUP62 (UniProt P37198) | -0.129 | -0.358 | 0.329 |
| GPR107 (UniProt Q5VW38) | -0.0315 | 0.243 | 0.169 |
| COA5 (UniProt Q86WW8) | -0.51 | -0.761 | 0.0388 |
| NCOA5 (UniProt Q9HCD5) | 1.91 | 0.857 | 1.05 |
| ACO1 (UniProt P21399) | 0.259 | -0.252 | -0.945 |
| SMTN (UniProt P53814) | 0.0165 | 0.00756 | -0.4 |
| PDE3A (UniProt Q14432) | 0.363 | 0.131 | -0.555 |
| HADHA (UniProt P40939) | -0.0579 | 0.088 | -0.331 |
| TROVE2 (UniProt P10155) | -0.23 | -0.235 | -0.238 |
| WDR89 (UniProt Q96FK6) | 2.45 | 1.2 | -12.3 |
| C8ORF33 (UniProt Q9H7E9) | 0.833 | -0.384 | 1.19 |
| THEM4 (UniProt Q5T1C6) | -0.175 | -0.235 | -0.626 |
| ZDHHC6 (UniProt Q9H6R6) | 0.211 | -0.0578 | -0.412 |
| SIN3A (UniProt Q96ST3) | -0.000782 | 0.0569 | -0.303 |
| E2F4 (UniProt Q16254) | 0.295 | 0.54 | 0.373 |
| TRUB2 (UniProt O95900) | 0.00158 | 0.0663 | -0.133 |
| EXOSC3 (UniProt Q9NQT5) | 0.273 | -0.000548 | -0.385 |
| PRKAB1 (UniProt Q9Y478) | -0.236 | 0.539 | -0.528 |
| FAM192A (UniProt Q9GZU8) | -0.00729 | 0.455 | -0.58 |
| VPS29 (UniProt Q9UBQ0) | -0.418 | -0.247 | -0.613 |
| SDF2L1 (UniProt Q9HCN8) | -2.27 | -1.73 | 0.265 |
| EIF4A1 (UniProt P60842) | 0.413 | 0.201 | 0.0167 |

| Target | thermal stability z-score [1, 3] | thermal stability z-score ([1]; arsenate co-treatment: none) | thermal stability z-score [2] |
| --- | --- | --- | --- |
| SF3A2 (UniProt Q15428) | -0.0843 | -0.43 | -0.0497 |
| NAA10 (UniProt P41227) | 1.16 | 0.982 | 0.405 |
| FAM120C (UniProt Q9NX05) | -0.0604 | -0.0122 | -0.296 |
| AIM1 | -0.151 | -0.209 | 0.00488 |
| SMARCA4 (UniProt P51532) | 0.212 | 0.272 | -0.673 |
| UBE2E2 (UniProt Q96LR5) | -0.607 | -0.124 | 4.13 |
| ALDH6A1 (UniProt Q02252) | -0.315 | 0.458 | 4.94 |
| CHAF1B (UniProt Q13112) | 1.3 | 1.08 | 1.29 |
| OLA1 (UniProt Q9NTK5) | 0.522 | 0.49 | -0.463 |
| SH3GL2 (UniProt Q99962) | 0.272 | 0.622 | 0.00309 |
| YTHDC2 (UniProt Q9H6S0) | -0.0971 | -0.734 | -0.0852 |
| GAA (UniProt P10253) | -0.154 | 0.311 | -0.00416 |
| MTDH (UniProt Q86UE4) | -0.531 | -0.503 | -1.35 |
| PSMD10 (UniProt O75832) | -0.817 | 0.0147 | -0.327 |
| BUB1B (UniProt O60566) | 0.0397 | 0.232 | 0.247 |
| DNAJA1 (UniProt P31689) | -1.05 | -0.818 | -0.452 |
| HSPB8 (UniProt Q9UJY1) | -0.255 | 0.0407 | -0.597 |
| TRAF3IP2 (UniProt O43734) | -0.106 | -0.159 | -0.155 |
| AP1G1 (UniProt O43747) | -0.704 | -0.404 | 0.813 |
| TK1 (UniProt P04183) | 0.233 | 0.418 | -0.307 |
| RERE (UniProt Q9P2R6) | 0.0956 | -0.103 | 0.00489 |
| HTATSF1 (UniProt O43719) | 0.386 | 0.479 | -0.763 |
| TIMM50 (UniProt Q3ZCQ8) | -0.412 | -0.179 | -0.391 |
